# Data as given in US20260207614A1, “IRAK4 DEGRADERS AND USES THEREOF” (Kymera Therapeutics, Inc., priority 2022, published 2026).
# “Also recorded” adds a separate entry of the source. Like-named read-outs stand apart in the source and are kept apart here.
# Assays:
# [1] = Phase 1 MAD plasma PK in healthy volunteers; type: in vivo, human; details: for Ctrough / AUC: Day 14, geometric mean (% CV); for AUC: read-out: AUC24; for Tmax: Day 14, median (range); for Cmax: Day 14 steady state, geometric mean (% CV)
# Experimental: The selection of Compound A doses will be guided by the safety, tolerability, and PK data in humans from the SAD portion of the study. […] Increasing dose levels in subsequent MAD cohorts will be identified based on the safety and PK observed in the previous SAD and MAD cohorts. Dose escalation between each MAD cohort will not exceed 100%.
# However, the dosing interval and the duration of dosing may change following review of the safety, PK, and PD data from Part A.
# A MAD5 cohort was added including five twice-weekly doses of 200 mg.
# Geometric Mean (% CV) reported for all parameters, except tmax where median (range) are presented. Accumulation Ratio represents fold change in exposure from Day 1 to Day 14.
# P-glycoprotein (P-gp) = P-glycoprotein (P-gp) (Homo sapiens, UniProt P08183); assay: P-gp substrate assessment in vitro; type: in vitro ADME
# Description: (§1) In in vivo pharmacokinetic (PK) studies conducted in rats, dogs, and monkeys.
# (§2) Metabolites generated in liver microsomes from humans were also detected in those from rat, dog, and monkey. In the in vitro drug-drug interaction studies.
# CYP3A4 = CYP3A4 (Homo sapiens, UniProt P08684); assay: In vitro drug-drug interaction and metabolism studies, CYP3A4; type: in vitro ADME
# Description: as §2
# [2] = Plasma protein binding and red blood cell partitioning; type: in vitro ADME, nonclinical species and humans
# [3] = system: ex vivo proinflammatory cytokine induction by R848 and LPS in whole blood; assay: Phase 1 MAD ex vivo cytokine induction by R848 and LPS in whole blood; parameters: species or system human; details: daily up to about 200 mg, Day 7-14, FIG. 16
# Description: In some embodiments, the cytokines include IFN-γ, IL-12, IL-1β, IL-10, IL-6, TNF-α, IL-8, IL-17, and IL-23.
# Phase 1 Part C safety = type: in vivo, human
# CYP2C19 = CYP2C19 (Homo sapiens, UniProt P33261); assay: In vitro drug-drug interaction study, CYP2C19; type: in vitro ADME
# Description: as §2
# IRAK4 = assay: In vitro IRAK4 degradation, monkey PBMCs; type: cell-based
# Permeability = type: in vitro ADME
# Description: as §1
# (§3) Compound A can be classified tentatively as a BCS II compound.
# [4] = system: proinflammatory gene transcripts; assay: Phase 1 Part C proinflammatory gene transcripts in skin lesions (RNAseq); type: in vivo, human; details: Day 28 compared to baseline
# [5] = Phase 1 SAD safety and tolerability; type: in vivo, human
# Description: Part A: Part A is a double-blind, randomized, placebo-controlled, SAD, sequential group study in 56 adult HVs, divided in 7 cohorts of eight HVs each. Seven ascending single doses (1 dose level per cohort) will be investigated. One or more additional cohorts may be added, as needed.
# • Treatment-emergent (serious) adverse events ([S]AEs) • Concomitant medication • Clinical laboratory tests • Hematology • Coagulation • Chemistry • Urinalysis and urine microscopy • Vital signs • Pulse Rate (bpm) • Systolic blood pressure (BP) (mm Hg) • Diastolic BP (mm Hg) • Respiratory rate • Temperature • Safety electrocardiogram and Holter monitoring • Heart Rate (bpm). PR, QRS, QT, QTcF
# All data will be fully listed.
# [6] = Phase 1 MAD Compound A concentration in skin; type: in vivo; details: human, oral, Day 14, once daily dosing, read-out: Ctrough (pre-dose) levels in skin relative to plasma
# [7] = Phase 1 Part C plasma PK in HS/AD patients; type: in vivo; details: human
# Description: Part C: Part C is an open-label, multiple dose study in a single cohort of up to 20 patients with AD or HS (at least 10 patients with AD) and will commence after the completion of Part B. Part C will be conducted on both an inpatient and outpatient basis and patients will continue to be followed for safety through Day 28. The dose regimen and the requirement for patient confinement to the clinical units will be selected by the SRC from review of the safety. PK, and PD data after completion of Part B.
# Solubility = type: physicochemical
# Description: as §3
# [8] = blinded SAD, study treatment related, per Investigator
# CYP3A4, sequence (P08684 whole entry): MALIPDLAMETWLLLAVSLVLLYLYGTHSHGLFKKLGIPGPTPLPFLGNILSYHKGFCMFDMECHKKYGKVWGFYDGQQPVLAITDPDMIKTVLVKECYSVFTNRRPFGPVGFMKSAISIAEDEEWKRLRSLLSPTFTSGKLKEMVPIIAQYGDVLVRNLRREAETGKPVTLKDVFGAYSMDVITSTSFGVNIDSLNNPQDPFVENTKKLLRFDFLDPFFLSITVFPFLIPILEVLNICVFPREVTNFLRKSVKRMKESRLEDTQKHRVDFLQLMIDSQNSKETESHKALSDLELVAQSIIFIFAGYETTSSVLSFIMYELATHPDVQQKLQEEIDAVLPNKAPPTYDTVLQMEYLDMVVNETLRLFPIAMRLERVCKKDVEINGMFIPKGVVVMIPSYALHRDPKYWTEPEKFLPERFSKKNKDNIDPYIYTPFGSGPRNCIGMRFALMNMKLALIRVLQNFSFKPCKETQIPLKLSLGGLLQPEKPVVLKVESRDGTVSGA
# CYP2C19, sequence (P33261 whole entry): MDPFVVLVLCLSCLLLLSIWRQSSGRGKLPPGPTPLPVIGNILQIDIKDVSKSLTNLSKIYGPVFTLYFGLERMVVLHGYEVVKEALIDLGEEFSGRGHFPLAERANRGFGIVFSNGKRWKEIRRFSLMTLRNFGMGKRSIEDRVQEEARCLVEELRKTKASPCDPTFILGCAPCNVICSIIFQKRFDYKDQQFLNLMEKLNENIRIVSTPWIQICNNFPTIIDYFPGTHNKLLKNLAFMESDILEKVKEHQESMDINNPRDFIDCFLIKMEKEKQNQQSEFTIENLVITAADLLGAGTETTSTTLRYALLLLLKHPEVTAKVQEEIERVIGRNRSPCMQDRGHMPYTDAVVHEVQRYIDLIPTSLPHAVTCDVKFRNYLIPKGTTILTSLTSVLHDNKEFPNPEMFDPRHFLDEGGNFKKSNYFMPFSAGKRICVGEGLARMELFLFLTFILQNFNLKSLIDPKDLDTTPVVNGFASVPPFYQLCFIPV
# P-glycoprotein (P-gp), sequence (P08183 whole entry): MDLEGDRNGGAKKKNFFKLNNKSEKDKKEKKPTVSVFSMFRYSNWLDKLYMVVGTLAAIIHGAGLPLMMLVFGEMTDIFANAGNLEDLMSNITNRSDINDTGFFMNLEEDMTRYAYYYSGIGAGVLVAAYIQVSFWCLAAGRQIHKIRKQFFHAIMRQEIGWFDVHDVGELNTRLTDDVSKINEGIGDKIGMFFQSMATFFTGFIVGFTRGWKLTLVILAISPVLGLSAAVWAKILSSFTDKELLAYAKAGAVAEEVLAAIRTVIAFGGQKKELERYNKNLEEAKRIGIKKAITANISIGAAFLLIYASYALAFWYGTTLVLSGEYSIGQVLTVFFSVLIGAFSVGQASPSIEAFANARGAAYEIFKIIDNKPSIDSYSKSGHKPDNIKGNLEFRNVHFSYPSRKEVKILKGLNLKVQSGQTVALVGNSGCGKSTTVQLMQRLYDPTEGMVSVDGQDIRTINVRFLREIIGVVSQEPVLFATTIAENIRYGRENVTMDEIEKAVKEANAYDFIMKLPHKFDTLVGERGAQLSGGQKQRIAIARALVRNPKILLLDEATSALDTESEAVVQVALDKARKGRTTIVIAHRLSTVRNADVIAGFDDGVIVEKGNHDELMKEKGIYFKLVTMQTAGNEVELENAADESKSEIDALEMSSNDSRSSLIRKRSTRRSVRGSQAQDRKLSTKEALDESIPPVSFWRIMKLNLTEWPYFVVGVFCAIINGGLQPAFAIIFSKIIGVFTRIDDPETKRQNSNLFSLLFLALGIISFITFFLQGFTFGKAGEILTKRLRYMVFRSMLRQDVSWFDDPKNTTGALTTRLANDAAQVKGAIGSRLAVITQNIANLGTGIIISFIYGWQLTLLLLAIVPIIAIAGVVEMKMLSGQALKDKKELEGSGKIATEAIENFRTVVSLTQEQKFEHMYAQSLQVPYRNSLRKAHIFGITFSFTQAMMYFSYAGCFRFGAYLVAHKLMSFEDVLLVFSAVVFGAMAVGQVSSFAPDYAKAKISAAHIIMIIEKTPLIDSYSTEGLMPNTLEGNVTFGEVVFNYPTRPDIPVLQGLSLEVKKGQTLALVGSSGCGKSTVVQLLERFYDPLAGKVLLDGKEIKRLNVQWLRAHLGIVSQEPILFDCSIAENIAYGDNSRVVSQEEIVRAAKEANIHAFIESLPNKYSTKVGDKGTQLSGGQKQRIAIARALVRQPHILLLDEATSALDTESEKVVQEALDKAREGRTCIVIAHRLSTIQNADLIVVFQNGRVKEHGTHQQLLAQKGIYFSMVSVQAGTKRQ
compound,measurement,setting,value
"Cn1c(=O)n([C@@H]2CCC(=O)NC2=O)c2cccc(C#CCOC3CCN(C[C@H]4CC[C@H](n5cc(NC(=O)c6cnn7ccc(N8C[C@H]9C[C@@H]8CO9)nc67)c(C(F)F)n5)CC4)CC3)c21 [Compound A, 5-((1R,4R)-2-oxa-5-azabicyclo[2.2.1]heptan-5-yl)-N-(3-(difluoromethyl)-1-((1r,4R)-4-((4-((3-(1-(2,6-dioxopiperidin-3-yl)-3-methyl-2-oxo-2,3-dihydro-1H-benzo[d]imidazol-4-yl)prop-2-yn-1-yl)oxy)piperidin-1-yl)methyl)cyclohexyl)-1H-pyrazol-4-yl)pyrazolo[1,5-a]pyrimidine-3-carboxamide]",Ctrough,[1]; 25 mg QD,5.03 (30.3) ng/mL
same,Ctrough,[1]; 50 mg QD,7.28 (35.1) ng/mL
same,Ctrough,[1]; 100 mg QD,9.81 (30.1) ng/mL
same,Ctrough,[1]; 200 mg QD,18.8 (32.6) ng/mL
same,day of dosing by which steady-state plasma levels reached,"[1]; MAD, once daily",≤ 7 days
same,AUC,"[1]; human, plasma, oral, 25 mg QD",0.153 µg·h/mL
same,Tmax,"[1]; human, plasma, oral, 25 mg QD",8 h
same,Cmax,"[1]; human, plasma, oral, 25 mg QD",0.0082 µg/mL
same,AUC,"[1]; human, plasma, oral, 50 mg QD",0.224 µg·h/mL
same,Tmax,"[1]; human, plasma, oral, 50 mg QD",8 h
same,Cmax,"[1]; human, plasma, oral, 50 mg QD",0.012 µg/mL
same,AUC,"[1]; human, plasma, oral, 100 mg QD",0.314 µg·h/mL
same,Tmax,"[1]; human, plasma, oral, 100 mg QD",8 h
same,Cmax,"[1]; human, plasma, oral, 100 mg QD",0.0161 µg/mL
same,AUC,"[1]; human, plasma, oral, 200 mg QD",0.498 µg·h/mL
same,Tmax,"[1]; human, plasma, oral, 200 mg QD",8 h
same,Cmax,"[1]; human, plasma, oral, 200 mg QD",0.0252 µg/mL
same,half-life,"[1]; human, plasma, oral, healthy volunteers, read-out: half-life, range observed in MAD",34 to 59 h
same,substrate of P-glycoprotein (P-gp),P-glycoprotein (P-gp),substrate
same,metabolizing enzyme,CYP3A4,primarily metabolized by CYP3A4
same,time dependent inhibition (TDI) of CYP3A4,CYP3A4; in vitro,potential time dependent inhibition (TDI)
same,partitioning into red blood cells,[2],did not significantly partition into red blood cells
same,plasma protein binding,[2]; across nonclinical species and humans,highly bound
same,inhibition of IFN-γ,[3],up to 85%
same,inhibition of IL-1β,[3],up to 68%
same,inhibition of IL-6,[3],up to 54%
same,inhibition of IL-8,[3],up to 46%
same,inhibition of IL-10,[3],up to 50%
same,inhibition of IL-12,[3],up to 72%
same,inhibition of IL-17,[3],up to 46%
same,inhibition of TNF-α,[3],up to 59%
same,course of QTc prolongation with continued dosing,Phase 1 Part C safety,resolution to baseline by Day 28; also recorded: spontaneously resolved to baseline by Day 28
same,serious adverse events,Phase 1 Part C safety,no serious adverse events
same,"severity of adverse events (headache, fatigue, diarrhea)",Phase 1 Part C safety,predominantly mild
same,safety and tolerability,"Phase 1 Part C safety; 75 mg QD fed, 28 days, HS/AD patients",generally safe and well-tolerated
same,QTcF prolongation,Phase 1 Part C safety; Days 7-14,"modest, non-adverse QTcF prolongation"
same,time dependent inhibition (TDI) of CYP2C19,CYP2C19,potential time dependent inhibition (TDI)
same,permeability,Permeability,medium; also recorded: moderate
same,"downregulation of proinflammatory gene transcripts in skin lesions (IL-5, IL-31, NLRP3, CXCL1, IL-2RB)",[4]; AD patients,> 25%
same,"downregulation of proinflammatory gene transcripts in skin lesions (IL-1b, IL-17, IL-36, IFN-g, IL-8, IL-5, GZMB, COX2)",[4]; HS patients,> 25%
same,"Abdominal pain, Severity",[5]; Cohort SAD 5,Mild
same,"Diarrhea, Severity",[5]; Cohort SAD 5,Mild
same,"Headache, Severity",[5]; Cohort SAD 5,Mild (x2)
same,"Palpitations, Severity",[5]; Cohort SAD 5,Mild
same,"Headache, Severity","[5]; Cohort SAD 5, SAD 5 FE, SAD 6",Moderate (x3)
same,"Diarrhea, Severity",[5]; Cohort SAD 5 FE,Mild
same,"Nausea, Severity",[5]; Cohort SAD 5 FE,Mild
same,"Vomiting, Severity",[5]; Cohort SAD 5 FE,Mild (x2)
same,"Muscle weakness, Severity",[5]; Cohort SAD 6,Mild
same,"Myalgia, Severity",[5]; Cohort SAD 6,Mild
same,"Nausea, Severity",[5]; Cohort SAD 6,Mild (x2)
same,ECG changes,[5]; SAD,No significant ECG changes
same,QTcF prolongation,[5]; SAD,no clinically significant QTcF prolongation
same,serious adverse events,[5]; SAD,no serious adverse events; also recorded: No SAEs
same,AST elevation,"[5]; SAD 5, n=1, resolution ~Day 21",3.8 ×ULN
same,ALT elevation,"[5]; SAD 5, n=1, slow resolution to baseline",2.5 ×ULN
same,"Abdominal pain, #AEs (subjects)",[5]; [8],1
same,"Diarrhea, #AEs (subjects)",[5]; [8],2 (2)
same,"Headache, #AEs (subjects)",[5]; [8],5 (4)
same,"Muscle weakness, #AEs (subjects)",[5]; [8],1
same,"Myalgia, #AEs (subjects)",[5]; [8],1
same,"Nausea, #AEs (subjects)",[5]; [8],3 (3)
same,"Palpitations, #AEs (subjects)",[5]; [8],1
same,"Vomiting, #AEs (subjects)",[5]; [8],2 (1)
same,safety and tolerability,"[5]; single doses, healthy volunteers",safe and well-tolerated
same,Kp at 14 day,[6],~10
same,exposure in fasted state as share of exposure in fed state,[7]; in vivo,about 133%
same,exposure in fed state as share of exposure in fasted state,[7]; in vivo,about 75%
same,half-life,"[7]; plasma, oral, Part C, 75 mg QD fed, HS/AD patients",44 h
same,solubility,Solubility,low
same,solubility,"Solubility; FaSSIF, pH 6.5, fassif, read-out: solubility in bio-relevant fluid (FaSSIF)",< 12 mg/mL
same,solubility,"Solubility; aqueous media, aqueous buffer, across the physiological pH range, read-out: aqueous solubility",≤ 3 mg/mL
same,BCS classification,Solubility; tentative,BCS II
